Experiments:
Hsc70 = biological target: T1, Hsc70 (Homo sapiens, UniProt P11142); settings: 5 uM chaperone, 1 mM ATP, Mg2+, pH 8, 25 C
T1 construct: gene HSPA8

PfHsp70-x [1] = biological target: T2, PfHsp70-x (Plasmodium falciparum, UniProt A0A143ZXN1); test: MESG-coupled ATPase assay; format: biochemical; settings: 5 uM chaperone alone, 1 mM ATP, pH 8, 25 C
T2 construct: gene PF3D7_0831700; aa 25-679, export signal peptide excluded; codon-optimized synthetic DNA; N-terminal His6 tag cut by 3C protease; expressed in E. coli Rosetta2(DE3)

PfHsp70-x [2] = biological target: T2, PfHsp70-x; test: MESG-coupled ATPase assay; format: biochemical; settings: 5 uM chaperone alone, 1 mM ATP, pH 8, 25 C; remark: listed apart in the source

T1 sequence (P11142 whole entry): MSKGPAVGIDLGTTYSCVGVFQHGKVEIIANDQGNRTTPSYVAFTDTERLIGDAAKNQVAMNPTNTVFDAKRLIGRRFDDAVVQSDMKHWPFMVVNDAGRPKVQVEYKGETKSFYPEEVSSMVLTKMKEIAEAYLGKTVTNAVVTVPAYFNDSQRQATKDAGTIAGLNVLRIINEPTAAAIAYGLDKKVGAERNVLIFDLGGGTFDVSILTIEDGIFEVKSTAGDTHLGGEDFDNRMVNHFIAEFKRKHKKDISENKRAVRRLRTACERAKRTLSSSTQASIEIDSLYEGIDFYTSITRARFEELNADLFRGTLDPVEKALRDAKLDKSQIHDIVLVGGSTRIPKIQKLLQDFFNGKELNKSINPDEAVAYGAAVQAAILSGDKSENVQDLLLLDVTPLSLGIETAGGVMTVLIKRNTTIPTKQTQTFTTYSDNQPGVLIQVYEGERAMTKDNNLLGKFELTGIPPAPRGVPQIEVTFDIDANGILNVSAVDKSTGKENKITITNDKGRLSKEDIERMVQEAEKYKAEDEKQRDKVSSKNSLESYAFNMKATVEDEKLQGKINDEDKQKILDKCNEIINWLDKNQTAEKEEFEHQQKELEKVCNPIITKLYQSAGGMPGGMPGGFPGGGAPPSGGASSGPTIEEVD

Nc1ncnc2c1ncn2[C@@H]1O[C@H](COP(=O)(O)OP(=O)(O)OP(=O)(O)O)[C@@H](O)[C@H]1O [ATP]
MESG-coupled ATPase assay (Hsc70): fold changes in ATP hydrolysis activities of PfHsp70-x (A, B) or human Hsc70 (C, D)

CC1(C)OC2=C(CC1Br)C(=O)C(=O)c1ccccc12 (stereo not drawn) [BBL, bromo-β-lapachona]
apparent half-maximal inhibitory concentration (PfHsp70-x [1]): BBL inhibited PfHsp70-x in our ATPase assays with low micromolar apparent half-maximal inhibitory concentration

CN(C)c1ccc2nc3ccc(=[N+](C)C)cc-3sc2c1 [methylene blue]
half-maximal inhibitory concentration (PfHsp70-x [2]): methylene blue inhibits both basal and stimulated PfHsp70-x activity
